This passage reports IC50, Ki and Activity results from ChEMBL document CHEMBL3351486 (Bioorg Med Chem Lett, 2014).

By IC50 is commonly meant the concentration needed to halve the response being measured. Broadly, the Ki is a measure of affinity in units of concentration, obtained from inhibition or displacement. A lower Ki goes with a stronger hold on the target.

Calls of active or inactive are those of the source. The rule behind the calls is not given here.

The nature of assay [1]: Cytotoxicity against BL2 cells (unknown origin) assessed as cell killing after 24 hrs by MTT assay. It is filed as functional, cell-based. To be noted: BL2, 24 h. (In general: Tetrazolium assays rely on reduction of a dye to a coloured formazan, in cell work by metabolically active cells.)
The nature of assay [2]: Cytotoxicity against BL2/B95 cells (unknown origin) assessed as cell killing after 24 hrs by MTT assay. To be noted: BL2/B95, 24 h. It is filed as functional, cell-based.
A short description of assay [3]: Cytotoxicity against Remb1 cells (unknown origin) assessed as cell killing after 24 hrs by MTT assay. It is filed as functional, cell-based. To be noted: Remb1, 24 h.
Another assay concerns the target Bcl-xL/BAK (Homo sapiens, UniProt Q07817). As to the kind of experiment: Inhibition of Bcl-xL/Bak (unknown origin) interaction. It is filed as protein assay.
The target in assay [4] is Induced myeloid leukemia cell differentiation protein Mcl-1/BH3-interacting domain death agonist (Homo sapiens, UniProt Q07820). As to the kind of experiment: Inhibition of Mcl1/Bid (unknown origin) interaction. It counts as protein assay.
Chain of Induced myeloid leukemia cell differentiation protein Mcl-1/BH3-interacting domain death agonist (Q07820 whole entry, the tested form may be a part): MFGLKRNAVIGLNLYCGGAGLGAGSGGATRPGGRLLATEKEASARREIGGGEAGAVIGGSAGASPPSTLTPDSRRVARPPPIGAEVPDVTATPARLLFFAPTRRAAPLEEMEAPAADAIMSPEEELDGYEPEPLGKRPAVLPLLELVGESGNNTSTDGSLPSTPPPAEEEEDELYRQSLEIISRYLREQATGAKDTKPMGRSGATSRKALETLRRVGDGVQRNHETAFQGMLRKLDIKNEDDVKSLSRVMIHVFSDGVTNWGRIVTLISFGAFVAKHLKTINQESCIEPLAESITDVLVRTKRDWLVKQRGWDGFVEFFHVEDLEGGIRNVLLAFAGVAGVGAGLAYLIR
Chain of Induced myeloid leukemia cell differentiation protein Mcl-1/BH3-interacting domain death agonist (P55957 whole entry, further chain, the tested form may be a part): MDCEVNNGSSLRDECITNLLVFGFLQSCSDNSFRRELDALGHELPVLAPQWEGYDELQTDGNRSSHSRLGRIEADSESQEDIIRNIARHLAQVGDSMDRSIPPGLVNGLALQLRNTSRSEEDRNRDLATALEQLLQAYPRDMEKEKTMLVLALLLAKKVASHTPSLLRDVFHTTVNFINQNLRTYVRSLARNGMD
Assay [5] is described as follows: Cytotoxicity against BL2 cells (unknown origin) assessed as cell killing at 10 uM after 24 hrs by MTT assay. It counts as functional.
The nature of assay [6]: Cytotoxicity against BL2/B95 cells (unknown origin) assessed as cell killing at 10 uM after 24 hrs by MTT assay. It counts as functional.
A short description of assay [7]: Cytotoxicity against Remb1 cells (unknown origin) assessed as cell killing at 10 uM after 24 hrs by MTT assay. It is filed as functional.
Assay [8] is described as follows: Induction of apoptosis in BL2 cells (unknown origin) at 7.5 uM after 24 hrs by Annexin V/propidium iodide staining-based flow cytometric analysis. It is filed as functional. In general terms: A flow cytometer gives signals particle by particle.
Assay [9] can be described thus: Induction of apoptosis in BL2/B95 cells (unknown origin) at 7.5 uM after 24 hrs by Annexin V/propidium iodide staining-based flow cytometric analysis. It is filed as functional.
The nature of assay [10]: Induction of apoptosis in Remb1 cells (unknown origin) at 7.5 uM after 24 hrs by Annexin V/propidium iodide staining-based flow cytometric analysis. It counts as functional.
The subject of a further assay is BL2. As to the kind of experiment: Induction of apoptosis in BL2 cells (unknown origin) assessed as PARP cleavage at 7.5 uM after 24 hrs by Western blot analysis. It is filed as functional, cell-based.
The next assay concerns BL2/B95. As to the kind of experiment: Induction of apoptosis in BL2/B95 cells (unknown origin) assessed as PARP cleavage at 7.5 uM after 24 hrs by Western blot analysis. It is filed as functional, cell-based.
The subject of the next assay is Remb1. As to the kind of experiment: Induction of apoptosis in Remb1 cells (unknown origin) assessed as PARP cleavage at 7.5 uM after 24 hrs by Western blot analysis. It is filed as functional, cell-based.

Chain of Bcl-xL/BAK (Q07817 whole entry, the tested form may be a part): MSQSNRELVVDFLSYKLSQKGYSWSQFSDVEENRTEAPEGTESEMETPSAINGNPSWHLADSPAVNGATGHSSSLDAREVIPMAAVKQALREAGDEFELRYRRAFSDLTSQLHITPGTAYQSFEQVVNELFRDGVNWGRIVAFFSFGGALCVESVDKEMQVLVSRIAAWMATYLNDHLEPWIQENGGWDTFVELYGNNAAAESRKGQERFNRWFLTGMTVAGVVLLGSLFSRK
Chain of Bcl-xL/BAK (Q16611 whole entry, further chain, the tested form may be a part): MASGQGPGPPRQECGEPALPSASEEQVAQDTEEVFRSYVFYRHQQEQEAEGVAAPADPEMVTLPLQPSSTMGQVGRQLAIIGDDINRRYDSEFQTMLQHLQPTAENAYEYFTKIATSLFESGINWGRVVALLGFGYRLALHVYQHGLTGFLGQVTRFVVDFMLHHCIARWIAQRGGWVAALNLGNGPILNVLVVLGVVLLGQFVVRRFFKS

On to `CC(C)=CCC[C@@H](C)[C@@H]1C=C[C@]2(C(=O)O)[C@@H](CC(C)=C[C@H]2/C=C(\C)[C@H]2CC[C@H](C(=O)O)CC2)C1`, for which the IC50 in assay [1], in assay [2] and in assay [3] was > 20 µM each time.

`CC(C)=CCC[C@@H](C)[C@@H]1C=C[C@]2(C(=O)O)[C@@H](CC(C)=C[C@H]2/C=C(\C)c2ccc(C(=O)O)cc2)C1`: the inhibition constant (Ki) at Bcl-xL/BAK was 4.6 µM; in [4], 9.1 µM. Besides, the Activity in [5] is recorded as >50%; in assay [6], >50%; in assay [7], >50%; in assay [8] it was 71%; in assay [9] it was 52%; in assay [10] it was 54%. Also, the half-maximal inhibitory concentration (IC50) in assay [1] was determined as 8.5 µM; in assay [2], 8.6 µM; in [3], 8.6 µM. Besides, the outcome in the assay with BL2, with BL2/B95 and in the assay on Remb1 was Active.

On to `CC(C)=CCC[C@H](C)[C@H]1C=C[C@@]2(C(=O)O)[C@H](CC(C)=C[C@@H]2/C=C(\C)[C@H]2CC[C@H](C(=O)O)CC2)C1`, for which the IC50 in [1], in assay [2] and in [3] was > 20 µM in each case.

`CC(C)=CCC[C@@H](C)[C@H]1C=C[C@@]2(C(=O)O)[C@H](CC(C)=C[C@@H]2/C=C(\C)[C@H]2CC[C@H](C(=O)O)CC2)C1`: the IC50 in [1], in assay [2] and in assay [3] was > 20 µM in each case.

As to `CC(C)=CCC[C@H](C)[C@@H]1C=C[C@]2(C(=O)O)[C@@H](CC(C)=C[C@H]2/C=C(\C)c2ccc(C(=O)O)cc2)C1`, the Ki amounted to 7.5 µM at Bcl-xL/BAK and 15.9 µM in assay [4]. The IC50 in [1], in assay [2] and in assay [3] was > 20 µM each time.
